Reference: US4259257A, “1-Phenyl-2-amino-1,3-propanediol-N-aryloxyalkyl derivatives” (Egyt Gyogyszervegyeszeti Gyar, priority 1977, dated 1981)
Counter-ions that a name gives are not always drawn. Like-named read-outs stand apart in the source and are kept apart here.

What was measured:
[1] = system: coronary insufficiency induced with glanduitrine in male rats (CFY strain); assay: Anti-anginose activity by the method of Nieschulz, coronary insufficiency induced with glanduitrine; type: in vivo; conditions: for Relative efficiency (relative anti-anginose activity): inhibition caused by Prenilamine=1; for Anti-anginose effect (inhibition %): rats, test dose 10.0 mg./kg. (compound 1), 2.0 mg./kg. (2, 3, Prenilamine), 4.0 mg./kg. (5, Lidocaine)
Procedure: Anti-anginose activity of the compounds according to the invention was tested on male rats from the CFY strain by the method of Nieschulz (Nieschulz, E. et al., Arzneimittelforschung, 5, 680/1955/). The rats weighed about 180 to 220 g. each and were narcotized prior to treatment. Electrocardiograms were registered by means of a NEK-2 ECG-instrument using a standard II output. The coronary insufficiency was induced with a 4 IE/kg. i.v. dose of glanduitrine. Prenilamine was used as a reference compound.
The acute intravenous toxicity was determined on rats of both sexes, using five animals for each doses. The relative anti-anginose activity was calculated on the basis of the following equation: [formula] Test results are shown in Table 3 below (inhibition caused by Prenilamine=1).

in vivo = conditions: rat, iv, read-out: LD50-value (acute intravenous toxicity)
Procedure: The acute intravenous toxicity was determined on rats of both sexes, using five animals for each doses. The relative anti-anginose activity was calculated on the basis of the following equation: [formula]

N. ischiadicus of rats = assay: Local anaesthetic activity by the method of Truant and d'Amato; type: in vivo; conditions: for Local anaesthetic activity EC50: N. ischiadicus of rats, motor-paralysis; for Local anaesthetic activity, relative efficiency: related to Lidocaine (1.0)
Procedure: The local anaesthetic activity was tested by the method of Truant and d'Amato (Truant, A. P. and Wiedling, S., Acta Chirurg. Scand. 116, 351/1958) on the N. ischiadicus of rats. The number of the animals showing the signs of characteristic motor-paralysis was recorded. As a control compound Lidocaine was used. This test can be carried out with water-soluble substances only.

[2] = Acute oral toxicity on mice (CFLP strain), 96 h observation; conditions: mouse, in vivo
Procedure: Toxicity (per os) has been determined on mice (CFLP strain) of both sexes weighing about 20 to 25 g. each, 10 mice were used for each doses and the time of observation was 96 hours.

isolated rat ileums = assay: Smooth muscle relaxing activity by the method of Brock et al. on isolated rat ileums; conditions: for Smooth muscle relaxant activity EC50: isolated rat ileums; for Smooth muscle relaxant activity, relative efficiency: related to Papaverine (1.0)
Source text: For the determination of smooth muscle relaxing activity the method of Brock et al. (Brock, N, et al., Arch. Exper. Pathol. u. Pharmacol., 215, 492/1952/) was used on isolated rat ileums. Papaverine was used as reference compound. In Table 4 below the EC50 -values and the relative efficiencies calculated on the basis of the following equation are also listed: [formula]

Structure (SMILES) | Relative efficiency (relative anti-anginose activity) [1] | Anti-anginose effect (inhibition %) [1] [%] | LD50 (in vivo; rats, i.v.) [mg/kg] | Local anaesthetic activity EC50 (N. ischiadicus of rats) [µg/mL] | LD50 at 96 h [2] [mg/kg] | Local anaesthetic activity, relative efficiency (N. ischiadicus of rats) | Smooth muscle relaxant activity EC50 (isolated rat ileums) [µg/mL] | Smooth muscle relaxant activity, relative efficiency (isolated rat ileums) | LD50 (in vivo) [mg/kg]
CC(Cc1ccccc1)NCCC(c1ccccc1)c1ccccc1 (stereo not drawn) [Prenilamine, 3,3-diphenylpropyl-1-methylphenethylamine, reference compound] | 1.0 | 41 | 11.5 | – | – | – | – | – | –
CCN(CC)CC(=O)Nc1c(C)cccc1C [Lidocaine, reference compound] | – | 39 | – | 0.19 | – | – | – | – | –
CC(COc1ccccc1)N[C@H](CO)[C@H](O)c1ccccc1 (single isomer, unassigned; (-)) [Compound 4, (-) (Threo + allothreo)-1-phenyl-2-phenoxy-isopropylamino-1,3-propanediol fumarate] | – | – | – | 0.28 | 275 | 0.68 | 10.78 | 0.80 | –
COc1ccc(Cc2nccc3cc(OC)c(OC)cc23)cc1OC [Papaverine, reference compound] | – | – | – | – | – | – | 8.78 | 1.0 | –
CC(C)N[C@@H](CO)[C@@H](O)c1ccccc1 [Compound 1, L (+) threo-1-phenyl-2-isopropylamino-1,3-propanediol] | 3.0 | 50 | – | – | 710 | – | – | – | 140
CC(COc1ccccc1)N[C@@H](CO)[C@H](O)c1ccccc1 (stereo partly drawn) [Compound 5, Erythro+alloerythro-1-phenyl-2-phenoxyisopropylamino-1,3-propanediol fumarate] | 3.0 | 64 | – | – | 2000 | – | – | – | 45
CC(COc1ccccc1)N[C@@H](CO)[C@@H](O)c1ccccc1 (single isomer, unassigned; (+)) [Compound 3, (+) (Threo + allothreo)-1-phenyl-2-phenoxy-isopropylamino-1,3-propanediol fumarate] | 3.0 | 67 | – | 0.20 | 350 | 0.95 | 8.50 | 1.03 | 21.5
CC(COc1ccccc1)N[C@@H](CO)[C@@H](O)c1ccccc1 (relative stereo) [Compound 2, Threo + allothreo-1-phenyl-2-phenoxy-isopropylamino-1,3-propanediol fumarate] | 1.3 | 56 | – | 0.12 | 200 | 1.58 | 17.57 | 0.50 | 11
